Calls of active or inactive are those of the source.
Key:
[1] = target: T1, Ubiquitin-conjugating enzyme E2 N (Homo sapiens, UniProt P61088); type: functional;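 note: Dose-response confirmation in a TR-FRET assay detecting UBC13-driven polyubiquitin chain formation, inhibition measured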
T1 sequence (P61088 whole entry): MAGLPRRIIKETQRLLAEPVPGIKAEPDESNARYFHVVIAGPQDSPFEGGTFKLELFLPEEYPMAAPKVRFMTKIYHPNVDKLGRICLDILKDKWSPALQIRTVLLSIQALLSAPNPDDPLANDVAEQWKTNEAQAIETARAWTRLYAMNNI

[2] = blockers of HIV-1 envelope-mediated cell-cell fusion – cherry-pick, dose response (AID 652057); type: functional, cell-based
[3] = HIV-1 AD8 envelope cell-cell fusion blockers – cherry-pick, dose response (AID 652062); type: functional, cell-based;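 note: luciferase signal from cell-cell fusion driven by HIV-1 clade B AD8 Env; potency is for inhibitors of fusion seen as a drop in luminescence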
[4] = system: SN12K1; test: cells; type: functional; settings: Homo sapiens
[5] = system: P388; test: cells; type: functional; settings: Mus musculus
[6] = system: P388/ADR; test: cells; type: functional; settings: Mus musculus
[7] = system: H4; test: Luminescence Cell-Based Dose Response HTS to Identify Activators of 5'UTR Stem-Loop Driven Prion Protein mRNA Translation in H4 Neuroglioblastoma Cells. [Related pubchem assays: 1829 (Project Summary), 1814 (Primary HTS)]; type: functional; settings: Homo sapiens
[8] = target: T2, Calpain-2 catalytic subunit (Sus scrofa, UniProt P43367); test: m-calpain protease blockers, concentration series – biochemical, fluorogenic peptide substrate, dose response (AID 1420); type: functional
T2 sequence (P43367 whole entry): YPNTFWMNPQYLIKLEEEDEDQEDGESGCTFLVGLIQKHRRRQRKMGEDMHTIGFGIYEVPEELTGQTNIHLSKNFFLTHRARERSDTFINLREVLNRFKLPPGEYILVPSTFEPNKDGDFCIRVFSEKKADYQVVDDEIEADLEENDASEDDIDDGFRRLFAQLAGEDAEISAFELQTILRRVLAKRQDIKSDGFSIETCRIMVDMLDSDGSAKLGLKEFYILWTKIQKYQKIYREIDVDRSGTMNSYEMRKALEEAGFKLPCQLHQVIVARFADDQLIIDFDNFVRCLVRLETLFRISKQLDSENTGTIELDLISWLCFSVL

[9] = Luminescence Cell-Based Dose Confirmation HTS to Identify Activators of 5'UTR Stem-Loop Driven Alpha-Synuclein mRNA Translation in H4 Neuroglioblastoma Cells. [Related pubchem assays: 1829 (Project Summary), 1814 (Primary HTS)]; type: functional
[10] = Luminescence Cell-Based Dose Response HTS to Identify Activators of Luciferase Translation or Activity in H4 […] Cells. [Related pubchem assays: 1829 (Project Summary), 1814 (Primary HTS)]; type: functional
[11] = target: Glucose-6-phosphate 1-dehydrogenase (Homo sapiens, UniProt P11413); test: inhibition of Homo sapiens G6PD, dose series – biochemical, fluorescence, selectivity assay for P. falciparum G6PD inhibitor project, dose response (AID 504792); type: functional
[12] = HEK-293T cell viability reduction – luminescence, B-cell screen hits, cytotoxicity control for BCR NF-kB inhibitor project, dose response (AID 489021); type: functional, cell-based;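 note: HEK-293T cells carrying an NF-kB luciferase reporter; cells exposed to compound for about 14 hours before viability readout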
[13] = target: Genome polyprotein (dengue virus type 2, UniProt P29990); test: flavivirus cap methylation enzyme inhibition – biochemical, confirmation dose response, primary screen (AID 588689); type: functional
[14] = target: Large T antigen (Simian virus 40, UniProt P03070); type: functional, Betapolyomavirus macacae;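 note: Confirmatory-stage PubChem screen for compounds that inhibit SV40 T antigen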
[15] = target: T3, Carboxy-terminal domain RNA polymerase II polypeptide A small phosphatase 1 (Homo sapiens, UniProt Q9GZU7); test: CTDSP1 inhibitors, concentration-response, biochemical, absorbance readout, ultra-high-throughput screen actives (AID 540297); type: functional
T3 sequence (Q9GZU7 whole entry): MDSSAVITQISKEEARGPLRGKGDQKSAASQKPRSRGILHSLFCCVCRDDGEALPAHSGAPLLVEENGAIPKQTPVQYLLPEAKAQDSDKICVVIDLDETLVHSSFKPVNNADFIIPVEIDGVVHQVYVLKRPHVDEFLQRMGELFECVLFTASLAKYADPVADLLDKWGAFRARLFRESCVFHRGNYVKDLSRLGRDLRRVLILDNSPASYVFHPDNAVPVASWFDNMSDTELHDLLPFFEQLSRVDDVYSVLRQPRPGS

[16] = target: T4, Heat shock factor protein 1 (Mus musculus, UniProt P38532); test: enhancement of HSF1-driven luciferase signal – cell-based, NIH3T3, luminescence, dose retest, confirmation (AID 435004); type: functional;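 note: stress induced by proteasome inhibitor MG132 added 30 min after compound; luciferase reporter driven by HSF1 response element in NIH3T3 cells; actives raise luminescence as potentiators of the MG132 stress response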
T4 sequence (P38532 whole entry): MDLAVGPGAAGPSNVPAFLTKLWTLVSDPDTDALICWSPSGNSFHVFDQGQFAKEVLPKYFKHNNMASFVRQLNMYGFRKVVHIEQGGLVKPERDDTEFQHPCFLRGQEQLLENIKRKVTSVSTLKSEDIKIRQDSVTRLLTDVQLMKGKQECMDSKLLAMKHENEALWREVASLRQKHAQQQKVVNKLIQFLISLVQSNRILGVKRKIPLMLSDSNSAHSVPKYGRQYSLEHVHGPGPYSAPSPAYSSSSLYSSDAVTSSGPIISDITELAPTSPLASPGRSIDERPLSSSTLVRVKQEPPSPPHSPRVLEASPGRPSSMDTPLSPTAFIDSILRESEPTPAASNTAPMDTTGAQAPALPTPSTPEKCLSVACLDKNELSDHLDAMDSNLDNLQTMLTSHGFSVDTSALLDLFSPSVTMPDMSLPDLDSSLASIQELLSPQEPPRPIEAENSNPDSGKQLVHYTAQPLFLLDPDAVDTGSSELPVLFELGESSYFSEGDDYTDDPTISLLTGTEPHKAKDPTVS

[17] = blockers of CRF-binding protein–CRF-R2 complex – cell-based, uHTS hits, 384-well, dose response (AID 651639); type: functional, Homo sapiens; settings: read-out: IC50_Mean
[18] = reduction of Shn3 3'UTR-driven luciferase in osteoblasts – cell-based, Clone20 osteoblasts, firefly luciferase, cherry-picked, dose response (AID 624132); type: functional;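 note: firefly luciferase luminescence from reporter carrying the Shn3 3'UTR in osteoblasts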
[19] = loss of viability in HepG2 cells – cell-based, CellTiter-Glo, cherry-picked, cytotoxicity control for Shn3 inhibitor project, dose response (AID 624134); type: functional
[20] = viability of HCT116 lacking mutant beta-catenin – cell-based, human colon tumor, dose response (AID 1045); type: functional;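 note: HCT116 colon tumor cells with beta catenin knocked out; cells exposed to compound for 60 hours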
[21] = non-specific 3'UTR reporter inhibition in Clone20-Shn3RL – cell-based, Renilla luciferase, cherry-picked, counter-screen for Shn3 inhibitor project, dose response (AID 624133); type: functional
[22] = viability of PTEN-deleted HCT116 cells – cell-based, HCT116 PTEN knockout, dose response (AID 1047); type: functional;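 note: HCT116 colon tumor cells with PTEN knocked out; cells exposed to compound for 60 hours before readout; potency for loss of cell viability measured by luminescence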
[23] = system: INS1; test: INS-1E survival protection against cytokine death – cell-based, luminescence, retest, dose response (AID 449756); type: functional; settings: Rattus norvegicus, INS1;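 note: cell death triggered by IL-1 beta plus TNF-alpha plus IFN-gamma mixture; protective hits raise ATP signal compared with cytokine alone wells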
[24] = cells; type: functional

Sequence of Genome polyprotein (P29990 2492-3391 limits assumed): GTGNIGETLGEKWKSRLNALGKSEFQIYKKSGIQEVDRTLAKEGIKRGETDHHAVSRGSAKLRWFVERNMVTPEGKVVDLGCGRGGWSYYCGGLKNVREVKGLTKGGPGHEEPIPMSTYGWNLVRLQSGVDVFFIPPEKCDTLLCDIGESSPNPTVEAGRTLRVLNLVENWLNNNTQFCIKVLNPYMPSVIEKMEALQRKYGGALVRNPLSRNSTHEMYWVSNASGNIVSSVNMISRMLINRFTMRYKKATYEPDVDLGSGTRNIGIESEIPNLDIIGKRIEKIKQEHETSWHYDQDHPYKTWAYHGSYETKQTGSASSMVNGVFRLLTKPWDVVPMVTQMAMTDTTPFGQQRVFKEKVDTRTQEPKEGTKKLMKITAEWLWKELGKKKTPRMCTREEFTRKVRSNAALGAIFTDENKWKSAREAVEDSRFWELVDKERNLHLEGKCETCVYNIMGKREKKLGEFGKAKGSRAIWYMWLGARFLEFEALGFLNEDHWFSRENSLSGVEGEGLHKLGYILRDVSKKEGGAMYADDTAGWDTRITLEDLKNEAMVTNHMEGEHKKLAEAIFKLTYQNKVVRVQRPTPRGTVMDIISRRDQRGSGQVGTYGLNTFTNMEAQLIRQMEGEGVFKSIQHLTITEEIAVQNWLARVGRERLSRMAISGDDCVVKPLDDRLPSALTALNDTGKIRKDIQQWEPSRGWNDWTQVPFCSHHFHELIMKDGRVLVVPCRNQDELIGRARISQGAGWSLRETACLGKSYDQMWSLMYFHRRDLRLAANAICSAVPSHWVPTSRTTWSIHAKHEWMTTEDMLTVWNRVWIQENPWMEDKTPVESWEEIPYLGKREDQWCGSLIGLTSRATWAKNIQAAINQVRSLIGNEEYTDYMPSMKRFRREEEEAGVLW
Sequence of Glucose-6-phosphate 1-dehydrogenase (P11413 whole entry): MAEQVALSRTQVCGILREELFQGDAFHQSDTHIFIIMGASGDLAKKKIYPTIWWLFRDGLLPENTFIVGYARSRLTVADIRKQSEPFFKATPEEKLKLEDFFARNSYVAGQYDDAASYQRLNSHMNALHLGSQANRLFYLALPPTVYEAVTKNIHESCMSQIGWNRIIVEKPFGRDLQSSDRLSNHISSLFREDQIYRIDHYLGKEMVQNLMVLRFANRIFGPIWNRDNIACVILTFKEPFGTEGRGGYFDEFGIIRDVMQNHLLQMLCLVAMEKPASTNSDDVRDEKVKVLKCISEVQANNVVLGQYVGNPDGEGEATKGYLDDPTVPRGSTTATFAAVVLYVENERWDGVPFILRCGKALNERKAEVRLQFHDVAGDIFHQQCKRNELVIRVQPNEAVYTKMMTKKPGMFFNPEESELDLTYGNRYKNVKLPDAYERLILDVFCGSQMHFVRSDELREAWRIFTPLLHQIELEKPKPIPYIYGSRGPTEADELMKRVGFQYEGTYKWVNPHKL
Sequence of Large T antigen (P03070 whole entry, the tested form may be a part): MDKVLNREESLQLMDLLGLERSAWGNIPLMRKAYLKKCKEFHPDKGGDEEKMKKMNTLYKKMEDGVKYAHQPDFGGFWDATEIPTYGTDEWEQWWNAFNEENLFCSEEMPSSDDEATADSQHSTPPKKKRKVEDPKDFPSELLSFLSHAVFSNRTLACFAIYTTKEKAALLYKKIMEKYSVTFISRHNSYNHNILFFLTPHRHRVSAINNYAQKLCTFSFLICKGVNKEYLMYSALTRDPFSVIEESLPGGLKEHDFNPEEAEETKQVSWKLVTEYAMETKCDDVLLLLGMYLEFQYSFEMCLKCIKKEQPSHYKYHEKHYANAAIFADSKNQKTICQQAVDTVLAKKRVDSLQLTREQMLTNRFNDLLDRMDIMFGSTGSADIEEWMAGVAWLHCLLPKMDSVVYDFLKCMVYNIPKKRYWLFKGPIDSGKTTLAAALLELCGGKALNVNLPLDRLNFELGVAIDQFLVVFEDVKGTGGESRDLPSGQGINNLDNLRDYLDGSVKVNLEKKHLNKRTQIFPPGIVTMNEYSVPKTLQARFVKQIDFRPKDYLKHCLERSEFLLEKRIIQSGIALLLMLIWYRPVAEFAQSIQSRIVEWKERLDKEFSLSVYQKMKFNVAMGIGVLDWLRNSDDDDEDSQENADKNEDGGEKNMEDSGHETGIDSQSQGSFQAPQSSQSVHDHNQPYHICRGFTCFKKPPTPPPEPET

Clc1ccc2c(c1)CNc1c(ncnc1N1CCOCC1)O2
IC50 [1]: > 20 µM (inactive)

O=C(C[C@@H]1CC[C@H]2[C@@H](COC[C@H](O)CN2Cc2cccc(C(F)(F)F)c2)O1)NCc1ccc(Cl)cc1
AC50 [2]: 4.85 µM (active)
AC50 [3]: 10.9 µM (active)

CCc1c(CNc2ccc(C(=O)NC(CC(=O)O)C(=O)O)cc2)ccc2nc(N)nc(N)c12 (centres undefined)
GI50 [4]: < 0.0202 µM (active)
GI50 [5]: < 0.0144 µM (active)
GI50 [6]: 0.0179 µM (active)

CC(=O)O[C@H]1CC[C@@]2(C)[C@H](CC[C@@H]3[C@@H]2CC[C@]2(C)[C@@H](c4ccc(=O)oc4)C[C@H]4O[C@]342)C1
GI50 [4]: 0.426 µM (active)
GI50 [5]: 11 µM (inactive)
GI50 [6]: 40.9 µM (inactive)

Nc1ccc2c(c1)C1=NNC(=O)CC1C2 (centres undefined)
GI50 [4]: > 100 µM (inactive)
GI50 [5]: > 100 µM (inactive)
GI50 [6]: > 100 µM (inactive)

C[C@H](C(=O)N(C)C[C@@H]1OCc2ccccc2-c2ccccc2C(=O)N([C@@H](C)CO)C[C@H]1C)c1ccccc1
AC50 [2]: 1.23 µM (active)
AC50 [3]: 8.04 µM (active)

CCCn1c(O)nnc1SCc1nc2ccccc2s1
EC50 [7]: 37.1 µM (active)
IC50 [8]: 0.803 µM (not active)
EC50 [9]: 3.71 µM (active)
EC50 [10]: 22.7 µM (active)

C[C@H](NC(N)=O)C(=O)Nc1ccc(N2CCOCC2)c(S(=O)(=O)Nc2ccc(Cl)cc2)c1
IC50 [11]: > 80 µM (inactive)

O=C(NCc1ccco1)C1CCN(C(=O)c2cc3sccc3n2Cc2ccc(Cl)cc2)CC1
IC50 [8]: 10.9 µM (not active)

CC(C)[C@H](N)c1nnc(SCC(=O)c2ccc(Cl)cc2)o1
IC50 [12]: > 80 µM (inactive)

CCN(CC)C(=O)c1ccc(S(=O)(=O)Cc2ccc(C)cc2)c([N+](=O)[O-])c1
IC50 [12]: > 80 µM (inactive)

O=C1NC(=O)C(=Cc2ccc(-c3ccccc3[N+](=O)[O-])o2)C(=O)N1
IC50 [11]: > 80 µM (inactive)
IC50 [13]: 17.8 µM (active)
IC50 [14]: 62.2 µM (active)

CN(c1ccccc1)S(=O)(=O)c1ccc(Cl)c(C(=O)OCC(=O)NCc2ccco2)c1
IC50 [15]: 8.74 µM (active)

O=C(COC(=O)c1c[nH]c(=O)[nH]c1=O)Nc1cccc([N+](=O)[O-])c1
IC50 [1]: > 20 µM (inactive)

O=C(CBr)c1ccc([N+](=O)[O-])c(CS(=O)(=O)c2ccc(Cl)cc2)c1
IC50 [11]: > 80 µM (inactive)
EC50 [16]: 31.9 µM (active)

NC(Cc1ccc([N+](=O)[O-])cc1)=NOC(=O)c1ccc(Br)cc1
IC50 [17]: 9.44 µM (active)

CCc1ccc(OCC(=O)NC(N=C(S)Nc2ccc(Cl)cc2)C(Cl)(Cl)Cl)cc1 (centres undefined)
AC50 [18]: 4.96 µM (active)
AC50 [19]: 18.1 µM (active)
EC50 [20]: 13.6 µM (active)
AC50 [21]: 26.1 µM (active)
EC50 [22]: 13.8 µM (active)

O=C(Nc1cc(Sc2ccccn2)cc([N+](=O)[O-])c1)c1cccc(F)c1
IC50 [8]: 5.86 µM (not active)
AC50 [23]: 5.55 µM (active)

CC1CN(Cc2csc(-c3ccc(Cl)cc3)n2)CC(C)O1 (centres undefined)
IC50 [8]: 13.2 µM (not active)

CCCCn1c(CN2CCN(c3ccc(F)cc3)CC2)nc2c1c(=O)n(C)c(=O)n2C
AC50 [18]: 2.73 µM (active)
AC50 [19]: 5.36 µM (active)
AC50 [21]: 23 µM (active)

Cc1nc2ccccc2c(=O)n1CC(=O)O
GI50 [4]: > 100 µM (inactive)
GI50 [5]: > 100 µM (inactive)
GI50 [6]: > 100 µM (inactive)

CCOC(=O)c1sc(NC(=O)CSc2nnc(Cc3ccccc3)o2)c(C#N)c1C
IC50 [11]: > 80 µM (inactive)

CN1C(=O)c2cccc3c(S(=O)(=O)Nc4ccccc4F)ccc1c23
IC50 [12]: > 80 µM (inactive)

COc1ccccc1NC(=O)N[C@@H]1C=C[C@H](CC(=O)NCc2ccc(Cl)c(Cl)c2)O[C@@H]1CO
AC50 [2]: 14.6 µM (active)
AC50 [3]: 43 µM (active)

CCOc1ccc(NC(=O)c2ccc(NC(=O)c3ccc(NC(N)=O)cc3)cc2)cc1
IC50 [15]: 3.89 µM (active)

C/C=C(/C)C(=O)OC1Cc2c(ccc3ccc(=O)oc23)OC1(C)C (centres undefined)
IC50 [12]: > 80 µM (inactive)

CNC(=O)c1cccc2c(Nc3ccc(NS(C)(=O)=O)cc3OC)c3cccc(C)c3nc12
GI50 [4]: < 0.01 µM (active)
GI50 [5]: < 0.01 µM (active)
GI50 [6]: 0.0488 µM (active)

O=P(Nc1cccc(Cl)c1)(Oc1ccccc1)Oc1ccccc1
IC50 [8]: 8.58 µM (not active)

COc1cc(/C=C2\C(=N)N3N=C(N4CCOCC4)SC3=NC2=O)ccc1OC(=O)c1ccccc1
IC50 [13]: 80.1 µM (active)

CC1CC(=O)C(C(C2=C(O)CC(C)CC2=O)c2ccccc2)=C(O)C1 (centres undefined)
IC50 [13]: 66.2 µM (active)

O=C(O/N=C/c1ccc2c(c1)OCO2)c1ccc([N+](=O)[O-])cc1
IC50 [8]: 16 µM (not active)
IC50 [24]: 8.31 µM (active)

Cc1cc(NC(=O)CSc2nc3ccsc3c(=O)n2CCCC(=O)NCCc2ccccc2)no1
IC50 [8]: 14.1 µM (not active)

COc1ccc(-c2ccc(OC)c([C@H]3[C@H]4C=CC[C@@H](C)[C@@H]4C(=O)N3Cc3ccccc3)c2)cc1C
IC50 [12]: > 80 µM (inactive)

C=C1CC(OC)(C(OC)C(=O)N[C@H]2OCO[C@H]3C2O[C@H](C[C@@H](COC)OC)C(C)(C)C3OC)O[C@H](C)[C@@H]1C (some centres undefined)
GI50 [4]: 1.06 µM (active)
GI50 [5]: 0.147 µM (active)
GI50 [6]: 0.57 µM (active)

Cc1c(Br)c([N+](=O)[O-])nn1CCCC(=O)Nc1c(C)n(C)n(-c2ccccc2)c1=O
IC50 [1]: > 20 µM (inactive)

CC(Cl)=CCn1c(NCCc2ccccc2)nc2c1c(=O)n(C)c(=O)n2C
AC50 [2]: 33.4 µM (active)
AC50 [19]: 58.8 µM (active)
AC50 [21]: 0.974 µM (active)
AC50 [3]: 3.67 µM (active)

Nc1nc(N)c2cc(Sc3cccc(C(F)(F)F)c3)ccc2n1 [WR-159412]
AC50 [18]: 4.87 µM (active)
AC50 [19]: 2.34 µM (active)
AC50 [21]: 19.7 µM (active)

CCOC(=O)c1c(NC(=O)c2ccc(C)cc2)sc2c1CC(C)(C)NC2(C)C
IC50 [1]: > 20 µM (inactive)

CCOC(=O)C1CCCN(C(=O)CSc2ccc(NC(C)=O)cc2)C1 (centres undefined)
IC50 [8]: < 0.4 µM (not active)

Cc1ccc(-c2c(C(=O)N/N=C/c3ccsc3)nnn2-c2nonc2N)cc1
IC50 [11]: > 80 µM (inactive)

Reference: ChEMBL document CHEMBL1201862, “PubChem BioAssay data set” (2004)
